Measurements taken from patent US4851518A, “Di and tri-O-acetyl-"O-iso-valeryl-23-O-demycinosyl tylosins, hydrazone derivatives thereof and processes for their preparation” (priority 1985, dated 1989).

Columns and labels:
[1] = Serum levels IV in mice (AUCs, 0-3h.), cylinder cup method; assay type: in vivo, male mice (Carworth CF-1); details: for AUC at 3 h: mouse, in vivo, intravenous single bolus 100 mg./kg.; for AUC at 3 h / serum levels compared with erythromycin, rosaramicin, tylosin, 3-O-acetyl-4"-O-iso-valeryltylosin, 3-O-acetyl-23-O-demycinosyl-4"-O-iso-valeryltylosin, intravenously to mice: 10 mg./ml. in vehicle; for serum levels compared with erythromycin, rosaramicin, tylosin, 3-O-acetyl-4"-O-iso-valeryltylosin, 3-O-acetyl-23-O-demycinosyl-4"-O-iso-valeryltylosin, intravenously to mice: 100 mg./kg.
Method: (§1) The serum levels of the compounds of this invention were determined in male mice (Carworth CF-1) weighing 18-20 g. each, and squirrel monkeys weighing ca. 1 kg. each. Groups of six mice were given aqueous solutions of the drugs intravenously as single bolus doses of 100 mg./kg., and groups of six monkeys were given the drugs orally as a single dose of 20, or 50 mg./kg. After 1, 3, 5, 10, 20, 30, 45, 60, 90, 120 and 180 min., mice were killed by cutting the jugular vein and the blood allowed to drain into 8 mm. (diameter) tubes which had been standing in a ice water bath. At each time point, blood from the group of mice was pooled. For monkeys, blood samples were taken after 15, 30, 45, 60, 90, 120, 180, 240 and 360 minutes and were not pooled. The samples were left to clot at room temperature for 15 min. After clotting, the samples were centrifuged for 10 min. Serum was removed and put into another test tube in an ice water bath, until antibiotic levels were determined by a cylinder cup method, with either Bacillus subtilis ATCC 6633, or Micrococcus luteus ATCC 9431 as the test organisms. Stock solutions of each antibacterial were prepared daily in the appropriate vehicle and diluted in homologous serum to prepare a standard curve. Serum samples, diluted where necessary in the appropriate serum, were compared to a standard curve of known potency by standard assay procedures. All assays were done at least twice.
(§2) AUCs (areas under the curves) were obtained from serum level vs. time data by the trapezoidal rule.

[2] = Serum levels PO in squirrel monkeys (AUCs, 0-6h.), cylinder cup method; assay type: in vivo; details: for AUC at 6 h: monkey, po
Method: as §1, with “Serum was removed and put into another test tube in an ice water bath, until antibiotic levels were determined by a cylinder cup method, with either Bacillus subtilis ATCC 6633, or Micrococcus luteus ATCC 9431 as the test organisms.” left out
as §2

[3] = cited from earlier work
[4] = serum, 20 mg/kg, oral single dose 20 mg./kg., 20 mg./ml. in PEG 40 castor oil/lactic acid vehicle
[5] = in vivo, 20 mg/kg, oral single dose 20 mg./kg., 20 mg./ml. in PEG 40 castor oil/lactic acid vehicle
[6] = serum, 20 mg/kg, oral single dose 20 mg./kg., 3.5 mg./ml. in vehicle, crossover experiment

SMILES	AUC at 3 h [1] [ng·h/mL]	AUC at 6 h [2, 4] [ng·h/mL]	further results
CC[C@H]1OC(=O)C[C@@H](OC(C)=O)[C@H](C)[C@@H](O[C@@H]2O[C@H](C)[C@@H](O[C@H]3C[C@@](C)(O)[C@@H](OC(=O)CC(C)C)[C@H](C)O3)[C@H](N(C)C)[C@H]2O)[C@@H](CC=NN2CCS(=O)(=O)CC2)C[C@@H](C)C(=O)/C=C/C(C)=C/[C@@H]1CO [IX, 3-O-Acetyl-23-O-demycinosyl-20-deoxo-20-[(4,4-dioxothiomorpholinyl)imino]-4"-O-iso-valeryltylosin]	40100	2500	
CC[C@H]1OC(=O)C[C@@H](OC(C)=O)[C@H](C)[C@@H](O[C@@H]2O[C@H](C)[C@@H](O[C@H]3C[C@@](C)(O)[C@@H](OC(=O)CC(C)C)[C@H](C)O3)[C@H](N(C)C)[C@H]2O)[C@@H](CC=NN2CCS(=O)(=O)CC2)C[C@@H](C)C(=O)/C=C/C(C)=C/[C@@H]1COC(=O)Cc1ccccc1 [XIII, 3-O-Acetyl-23-O-demycinosyl-20-deoxo-20-[(4,4-dioxothiomorpholinyl)imino]-23-O-phenylacetyl-4"-O-iso-valeryltylosin]	43400		
CC[C@H]1OC(=O)C[C@@H](OC(C)=O)[C@H](C)[C@@H](O[C@@H]2O[C@H](C)[C@@H](O[C@H]3C[C@@](C)(O)[C@@H](OC(=O)CC(C)C)[C@H](C)O3)[C@H](N(C)C)[C@H]2OC(C)=O)[C@@H](CC=NN2CCS(=O)(=O)CC2)C[C@@H](C)C(=O)/C=C/C(C)=C/[C@@H]1COC(C)=O [XII, 3,23,2'-Tri-O-acetyl-23-O-demycinosyl-20-deoxo-20-[(4,4-dioxothiomorpholinyl)imino]-4"-O-iso-valeryltylosin]	154000		serum levels compared with erythromycin, rosaramicin, tylosin, 3-O-acetyl-4"-O-iso-valeryltylosin, 3-O-acetyl-23-O-demycinosyl-4"-O-iso-valeryltylosin, intravenously to mice [1]: serum levels that are superior; AUC at 6 h ([2]; serum, 20 mg/kg, oral single dose 20 mg./kg., 3.5 mg./ml. in vehicle): 3800 ng·h/mL
CC[C@H]1OC(=O)C[C@@H](O)[C@H](C)[C@@H](O[C@@H]2O[C@H](C)[C@@H](O[C@H]3C[C@@](C)(O)[C@@H](O)[C@H](C)O3)[C@H](N(C)C)[C@H]2O)[C@@H](CC=O)C[C@@H](C)C(=O)/C=C/C(C)=C/[C@@H]1CO[C@@H]1O[C@H](C)[C@@H](O)[C@@H](OC)[C@H]1OC [III, Tylosin]	24200		stability in acidic and basic solution [3]: readily transformed in acidic and basic solution into aldol condensation and Michael addition products; AUC at 6 h [2, 5]: 2600 ng·h/mL; AUC at 6 h ([2]; in vivo, 50 mg/kg, oral single dose 50 mg./kg., 50 mg./ml. in vehicle): 15600 ng·h/mL
CC[C@H]1OC(=O)C[C@@H](OC(C)=O)[C@H](C)[C@@H](O[C@@H]2O[C@H](C)[C@@H](O[C@H]3C[C@@](C)(O)[C@@H](OC(=O)CC(C)C)[C@H](C)O3)[C@H](N(C)C)[C@H]2OC(C)=O)[C@@H](CC=NN2CCS(=O)(=O)CC2)C[C@@H](C)C(=O)/C=C/C(C)=C/[C@@H]1CO [X, 3,2'-Di-O-acetyl-23-O-demycinosyl-20deoxo-20-[(4,4-dioxothiomorpholinyl)imino]-4"-O-iso-valeryltylosin]	80500	4800	
CC[C@H]1OC(=O)C[C@@H](OC(C)=O)[C@H](C)[C@@H](O[C@@H]2O[C@H](C)[C@@H](O[C@H]3C[C@@](C)(O)[C@@H](OC(=O)CC(C)C)[C@H](C)O3)[C@H](N(C)C)[C@H]2O)[C@@H](CC=NN2CCS(=O)(=O)CC2)C[C@@H](C)C(=O)/C=C/C(C)=C/[C@@H]1CO[C@@H]1O[C@H](C)[C@@H](O)[C@@H](OC)[C@H]1OC [VIII, 3-O-Acetyl-20-deoxo-20-[(4,4-dioxothiomorpholinyl)imino]-4"-O-iso-valeryltylosin]	67600	7500	
CC[C@H]1OC(=O)C[C@@H](OC(C)=O)[C@H](C)[C@@H](O[C@@H]2O[C@H](C)[C@@H](O[C@H]3C[C@@](C)(O)[C@@H](OC(=O)CC(C)C)[C@H](C)O3)[C@H](N(C)C)[C@H]2O)[C@@H](CC=NN2CCS(=O)(=O)CC2)C[C@@H](C)C(=O)/C=C/C(C)=C/[C@@H]1COC(C)=O [XI, 3,23-Di-O-acetyl-23-O-demycinosyl-20-deoxo-20-[(4,4-dioxothiomorpholinyl)imino]-4"-O-iso-valeryltylosin]	61800	4600	
CC[C@H]1OC(=O)[C@H](C)[C@@H](O[C@H]2C[C@@](C)(OC)[C@@H](O)[C@H](C)O2)[C@H](C)[C@@H](O[C@@H]2O[C@H](C)C[C@H](N(C)C)[C@H]2O)[C@](C)(O)C[C@@H](C)C(=O)[C@H](C)[C@@H](O)[C@]1(C)O [I, Erythromycin, reference compound]	36100		AUC at 6 h ([2]; in vivo, 20 mg/kg, oral single dose 20 mg./kg., 3.5 mg./ml. in vehicle): 1500 ng·h/mL; AUC at 6 h ([2]; in vivo, 20 mg/kg, oral single dose 20 mg./kg., 10 mg./ml. in vehicle): 4800 ng·h/mL; AUC at 6 h [2, 5]: 4900 ng·h/mL
CC[C@H]1OC(=O)C[C@@H](O)[C@H](C)[C@@H](O[C@@H]2O[C@H](C)C[C@H](N(C)C)[C@H]2O)[C@@H](CC=O)C[C@@H](C)C(=O)/C=C/[C@]2(C)O[C@H]2[C@@H]1C [II, Rosaramicin, reference compound]		2200	AUC at 6 h ([2]; serum, 50 mg/kg, oral single dose 50 mg./kg., 50 mg./ml. in vehicle): 6600 ng·h/mL
CC[C@H]1OC(=O)C[C@@H](OC(C)=O)[C@H](C)[C@@H](O[C@@H]2O[C@H](C)[C@@H](O[C@H]3C[C@@](C)(O)[C@@H](OC(=O)CC(C)C)[C@H](C)O3)[C@H](N(C)C)[C@H]2O)[C@@H](CC=O)C[C@@H](C)C(=O)/C=C/C(C)=C/[C@@H]1CO [V, 3-O-Acetyl-23-O-demycinosyl-4"-O-isovaleryltylosin, reference compound]	28300	5500	
CC[C@H]1OC(=O)C[C@@H](OC(C)=O)[C@H](C)[C@@H](O[C@@H]2O[C@H](C)[C@@H](O[C@H]3C[C@@](C)(O)[C@@H](OC(=O)CC(C)C)[C@H](C)O3)[C@H](N(C)C)[C@H]2OC(C)=O)[C@@H](CC=O)C[C@@H](C)C(=O)/C=C/C(C)=C/[C@@H]1CO [VI, 3,2'-Di-O-acetyl-23-O-demycinosyl-4"-O-iso-valeryltylosin]		10400	serum levels compared with 3-O-acetyl-4"-O-iso-valeryltylosin, orally to squirrel monkeys ([2]; 20 mg./kg., 20 mg./ml. in vehicle): slightly lower serum levels; serum levels compared with 3-O-acetyl-4"-O-iso-valeryltylosin, orally to squirrel monkeys ([2]; oral, dose not given): slightly lower serum levels
CC[C@H]1OC(=O)C[C@@H](OC(C)=O)[C@H](C)[C@@H](O[C@@H]2O[C@H](C)[C@@H](O[C@H]3C[C@@](C)(O)[C@@H](OC(=O)CC(C)C)[C@H](C)O3)[C@H](N(C)C)[C@H]2OC(C)=O)[C@@H](CC=O)C[C@@H](C)C(=O)/C=C/C(C)=C/[C@@H]1COC(C)=O [VII, 3,23,2'-Tri-O-acetyl-23-O-demycinosyl-4"-O-iso-valeryltylosin]	69400		serum levels compared with erythromycin, rosaramicin, tylosin, 3-O-acetyl-4"-O-iso-valeryltylosin, 3-O-acetyl-23-O-demycinosyl-4"-O-iso-valeryltylosin, intravenously to mice [1]: serum levels that are superior; serum levels compared with erythromycin, rosaramicin, tylosin, 3-O-acetyl-23-O-demycinosyl-4"-O-iso-valeryltylosin, 3-O-acetyl-4"-O-iso-valeryltylosin, intravenously to mice ([1]; intravenous, dose not given): higher serum levels; serum levels compared with 3-O-acetyl-4"-O-iso-valeryltylosin, orally to squirrel monkeys ([2]; 20 mg./kg., 3.5 mg./ml. in vehicle): superior serum levels; AUC at 6 h [2, 6]: 13500 ng·h/mL; serum levels compared with 3-O-acetyl-4"-O-iso-valeryltylosin, orally to squirrel monkeys ([2]; oral, dose not given): superior serum levels
CC[C@H]1OC(=O)C[C@@H](OC(C)=O)[C@H](C)[C@@H](O[C@@H]2O[C@H](C)[C@@H](O[C@H]3C[C@@](C)(O)[C@@H](OC(=O)CC(C)C)[C@H](C)O3)[C@H](N(C)C)[C@H]2O)[C@@H](CC=O)C[C@@H](C)C(=O)/C=C/C(C)=C/[C@@H]1CO[C@@H]1O[C@H](C)[C@@H](O)[C@@H](OC)[C@H]1OC [IV, 3-O-Acetyl-4"-O-iso-valeryltylosin, reference compound]	52400	15800	AUC at 6 h [2, 6]: 7600 ng·h/mL
